Measured values reported in ChEMBL document CHEMBL4014323, “Hydroxy-Substituted Heteroarylpiperazines: Novel Scaffolds for β-Arrestin-Biased D2R Agonists” (J Med Chem, 2017).

Experiments:
D(2) dopamine receptor [1] = biological target: T1, D(2) dopamine receptor (Homo sapiens, UniProt P14416); test: biochemical; assay type: cell-based
Description: Displacement of [3H]spiperone from human D2LR expressed in CHO cell membranes by radioligand binding assay

D(2) dopamine receptor [2] = biological target: T1, D(2) dopamine receptor; test: biochemical; assay type: cell-based; remark: listed apart in the source
Description: Displacement of [3H]spiperone from human D2SR expressed in CHO cell membranes by radioligand binding assay

D(4) dopamine receptor = biological target: T2, D(4) dopamine receptor (Homo sapiens, UniProt P21917); test: biochemical; assay type: cell-based
T2 sequence (P21917 whole entry): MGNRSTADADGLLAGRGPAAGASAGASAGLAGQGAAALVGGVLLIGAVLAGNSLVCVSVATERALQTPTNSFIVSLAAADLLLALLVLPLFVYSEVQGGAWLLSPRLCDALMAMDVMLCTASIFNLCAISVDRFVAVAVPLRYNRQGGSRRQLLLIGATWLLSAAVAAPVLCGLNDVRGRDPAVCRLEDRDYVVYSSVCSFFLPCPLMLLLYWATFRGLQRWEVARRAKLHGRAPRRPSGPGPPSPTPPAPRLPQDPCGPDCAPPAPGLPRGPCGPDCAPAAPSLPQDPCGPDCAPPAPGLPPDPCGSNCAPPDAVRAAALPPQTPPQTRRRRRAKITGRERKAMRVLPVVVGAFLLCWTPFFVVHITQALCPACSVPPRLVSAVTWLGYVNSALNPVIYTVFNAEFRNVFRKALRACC
Description: Displacement of [3H]spiperone from human D4R expressed in CHO cell membranes by radioligand binding assay

D(2) dopamine receptor [3] = biological target: T1, D(2) dopamine receptor; assay type: cell-based, HEK-293T
Description: Partial agonist activity at human D2SR expressed in HEK293T cells co-expressing (EA)beta-arrestin2 assessed as induction of beta-arrestin2 recruitment after 5 hrs by chemiluminescence assay

D(2) dopamine receptor [4] = biological target: T1, D(2) dopamine receptor; assay type: functional, cell-based, HEK-293T
Description: Agonist activity at human D2S receptor expressed in HEK293T cell membranes coexpressing Galphao1 assessed as induction of nucleotide exchange preincubated for 30 mins followed by addition of [35S]GTPgammaS measured after 30 mins by [35S]GTPgammaS binding assay

D(2) dopamine receptor [5] = biological target: T1, D(2) dopamine receptor; assay type: cell-based, HEK-293T; remark: listed apart in the source
Description: Partial agonist activity at human D2SR expressed in HEK293T cells co-expressing (EA)beta-arrestin2 and GRK2 assessed as induction of beta-arrestin2 recruitment after 5 hrs by chemiluminescence assay

[6] = Half life in Sprague-Dawley rat liver microsomes at 20 uM by HPLC analysis; assay type: ADME, microsome
[7] = Intrinsic clearance in Sprague-Dawley rat liver microsomes assessed per mg protein at 20 uM by HPLC analysis; assay type: ADME, microsome; settings: read-out: CLH
[8] = Binding affinity to microsomal protein in Sprague-Dawley rat liver microsomes after 60 mins in presence of NADPH by HPLC analysis; assay type: ADME; settings: read-out: PB (converted)
[9] = Binding affinity to microsomal protein in Sprague-Dawley rat liver microsomes after 60 mins in absence of NADPH by HPLC analysis; assay type: ADME; settings: 1 h
[10] = biological target: T3, Voltage-gated inwardly rectifying potassium channel KCNH2 (Homo sapiens, UniProt Q12809); test: Inhibition of human ERG expressed in CHO cells assessed as reduction in tail current at 1 uM and -40 holding potential by automated patch-clamp assay; assay type: cell-based
hERG (KCNH2) [11] = biological target: T4, hERG (KCNH2) (Homo sapiens, UniProt Q12809); test: Inhibition of human ERG expressed in CHO cells assessed as tail current remaining at 10 uM and -40 holding potential by automated patch-clamp assay; assay type: cell-based; settings: CHO cells expressing human ERG, read-out: Activity
hERG (KCNH2) [12] = biological target: T4, hERG (KCNH2); test: Inhibition of human ERG expressed in CHO cells assessed as tail current remaining at 50 uM and -40 holding potential by automated patch-clamp assay; assay type: cell-based; settings: CHO cells expressing human ERG, read-out: Activity
[13] = biological target: T3, Voltage-gated inwardly rectifying potassium channel KCNH2; test: Inhibition of human ERG expressed in CHO cells assessed as reduction in tail current at -40 holding potential by automated patch-clamp assay; assay type: cell-based
HEK293 = test: Cytotoxicity against HEK293 cells; assay type: cell-based; settings: human
D(2) dopamine receptor [14] = biological target: T1, D(2) dopamine receptor; settings: HEK-293T, at 1e-07 to 100 µM
Description: Agonist activity at human D2S receptor expressed in HEK293T cell membranes coexpressing Galphao1 assessed as induction of nucleotide exchange at 0.1 pM to 100 uM preincubated for 30 mins followed by addition of [35S]GTPgammaS measured after 30 mins by [35S]GTPgammaS binding assay relative to quinpirole

D(1A) dopamine receptor = D(1A) dopamine receptor (Homo sapiens, UniProt P21728); test: biochemical
Description: Displacement of [3H]SCH23390 from human D1R expressed in HEK293T cell membranes by radioligand binding assay

D(1B) dopamine receptor = D(1B) dopamine receptor (Homo sapiens, UniProt P21918); test: biochemical
Description: Displacement of [3H]SCH23390 from human D5R expressed in HEK293T cell membranes by radioligand binding assay

[15] = biological target: 5-hydroxytryptamine receptor 2A (Homo sapiens, UniProt P28223); test: biochemical
Description: Displacement of [3H]ketanserin from human 5-HT2AR expressed in HEK293T cell membranes by radioligand binding assay

Liver = test: Metabolic stability in Sprague-Dawley rat liver microsomes at 20 uM measured after 15 mins by HPLC-based mass-spectrometry; assay type: ADME, microsome; settings: 0.25 h
D(2) dopamine receptor [16] = biological target: T1, D(2) dopamine receptor; test: Agonist activity at human D2S receptor expressed in HEK293T cell membranes coexpressing Galphao1 assessed as induction of nucleotide exchange at 30 uM preincubated for 30 mins followed by addition of [35S]GTPgammaS measured after 30 mins by [35S]GTPgammaS binding assay relative to quinpirole; assay type: functional; settings: HEK-293T

Chain of D(1A) dopamine receptor (P21728 whole entry): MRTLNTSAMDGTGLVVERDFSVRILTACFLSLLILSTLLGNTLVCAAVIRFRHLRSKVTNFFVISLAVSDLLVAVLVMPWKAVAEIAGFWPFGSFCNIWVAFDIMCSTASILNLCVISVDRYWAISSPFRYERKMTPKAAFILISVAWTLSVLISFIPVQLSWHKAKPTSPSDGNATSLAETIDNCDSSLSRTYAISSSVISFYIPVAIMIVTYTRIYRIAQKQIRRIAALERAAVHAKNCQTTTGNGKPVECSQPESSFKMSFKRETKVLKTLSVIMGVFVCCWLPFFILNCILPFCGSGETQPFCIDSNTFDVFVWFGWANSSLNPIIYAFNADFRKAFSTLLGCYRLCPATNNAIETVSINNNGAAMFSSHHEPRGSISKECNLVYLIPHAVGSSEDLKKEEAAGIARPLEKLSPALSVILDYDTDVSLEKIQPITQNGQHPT
Chain of D(1B) dopamine receptor (P21918 whole entry): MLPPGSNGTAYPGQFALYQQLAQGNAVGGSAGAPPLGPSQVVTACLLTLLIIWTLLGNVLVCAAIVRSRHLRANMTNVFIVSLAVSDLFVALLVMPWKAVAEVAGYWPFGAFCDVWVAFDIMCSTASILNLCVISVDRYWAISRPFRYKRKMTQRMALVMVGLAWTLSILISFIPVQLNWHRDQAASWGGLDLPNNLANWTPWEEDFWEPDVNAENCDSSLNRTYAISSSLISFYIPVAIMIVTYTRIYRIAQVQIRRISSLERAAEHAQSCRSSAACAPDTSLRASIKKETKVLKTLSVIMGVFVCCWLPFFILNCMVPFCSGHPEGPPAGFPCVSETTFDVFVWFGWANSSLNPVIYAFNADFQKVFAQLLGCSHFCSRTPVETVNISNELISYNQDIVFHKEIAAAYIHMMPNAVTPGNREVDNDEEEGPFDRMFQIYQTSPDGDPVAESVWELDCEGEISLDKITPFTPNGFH
T3 sequence (Q12809 whole entry): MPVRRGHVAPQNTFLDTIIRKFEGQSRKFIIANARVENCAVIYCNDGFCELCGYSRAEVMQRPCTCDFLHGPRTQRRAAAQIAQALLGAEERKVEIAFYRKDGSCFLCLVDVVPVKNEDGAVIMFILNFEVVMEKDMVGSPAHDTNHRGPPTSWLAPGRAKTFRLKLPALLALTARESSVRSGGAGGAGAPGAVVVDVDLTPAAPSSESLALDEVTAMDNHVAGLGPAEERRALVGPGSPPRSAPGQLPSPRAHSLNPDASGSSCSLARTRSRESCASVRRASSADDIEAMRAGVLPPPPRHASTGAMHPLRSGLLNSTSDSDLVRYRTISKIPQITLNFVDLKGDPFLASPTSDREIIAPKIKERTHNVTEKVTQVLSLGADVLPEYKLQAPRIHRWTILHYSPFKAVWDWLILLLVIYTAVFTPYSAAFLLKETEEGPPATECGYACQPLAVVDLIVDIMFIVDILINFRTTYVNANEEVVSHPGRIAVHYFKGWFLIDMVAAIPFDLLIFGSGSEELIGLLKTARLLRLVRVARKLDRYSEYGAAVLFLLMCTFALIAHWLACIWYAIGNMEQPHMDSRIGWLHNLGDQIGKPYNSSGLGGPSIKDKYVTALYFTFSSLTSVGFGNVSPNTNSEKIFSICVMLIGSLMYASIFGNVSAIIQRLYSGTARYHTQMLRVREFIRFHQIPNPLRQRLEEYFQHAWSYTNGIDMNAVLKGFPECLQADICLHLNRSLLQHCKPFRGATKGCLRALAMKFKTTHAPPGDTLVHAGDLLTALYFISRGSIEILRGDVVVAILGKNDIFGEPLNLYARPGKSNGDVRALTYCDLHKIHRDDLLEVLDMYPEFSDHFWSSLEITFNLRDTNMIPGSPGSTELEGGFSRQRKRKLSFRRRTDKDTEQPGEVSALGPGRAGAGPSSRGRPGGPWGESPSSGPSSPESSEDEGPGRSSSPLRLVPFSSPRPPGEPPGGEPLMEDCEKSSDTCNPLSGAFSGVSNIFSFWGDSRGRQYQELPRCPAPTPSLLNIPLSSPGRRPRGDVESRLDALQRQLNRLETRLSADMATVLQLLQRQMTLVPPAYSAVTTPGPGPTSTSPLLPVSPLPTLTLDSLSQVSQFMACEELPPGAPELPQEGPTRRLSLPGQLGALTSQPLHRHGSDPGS
T1 sequence (P14416 whole entry): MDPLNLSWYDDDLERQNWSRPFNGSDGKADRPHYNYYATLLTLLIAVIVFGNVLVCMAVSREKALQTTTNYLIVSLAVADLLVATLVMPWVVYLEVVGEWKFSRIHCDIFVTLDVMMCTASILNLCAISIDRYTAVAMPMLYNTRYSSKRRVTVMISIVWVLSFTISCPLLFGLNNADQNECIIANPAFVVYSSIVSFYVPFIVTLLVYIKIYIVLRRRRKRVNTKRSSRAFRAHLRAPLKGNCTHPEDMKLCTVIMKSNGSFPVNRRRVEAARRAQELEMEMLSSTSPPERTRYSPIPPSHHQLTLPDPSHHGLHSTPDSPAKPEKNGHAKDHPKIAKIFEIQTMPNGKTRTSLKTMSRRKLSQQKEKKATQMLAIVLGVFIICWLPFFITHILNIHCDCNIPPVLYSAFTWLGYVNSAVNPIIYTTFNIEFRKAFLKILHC
Chain of 5-hydroxytryptamine receptor 2A (P28223 whole entry): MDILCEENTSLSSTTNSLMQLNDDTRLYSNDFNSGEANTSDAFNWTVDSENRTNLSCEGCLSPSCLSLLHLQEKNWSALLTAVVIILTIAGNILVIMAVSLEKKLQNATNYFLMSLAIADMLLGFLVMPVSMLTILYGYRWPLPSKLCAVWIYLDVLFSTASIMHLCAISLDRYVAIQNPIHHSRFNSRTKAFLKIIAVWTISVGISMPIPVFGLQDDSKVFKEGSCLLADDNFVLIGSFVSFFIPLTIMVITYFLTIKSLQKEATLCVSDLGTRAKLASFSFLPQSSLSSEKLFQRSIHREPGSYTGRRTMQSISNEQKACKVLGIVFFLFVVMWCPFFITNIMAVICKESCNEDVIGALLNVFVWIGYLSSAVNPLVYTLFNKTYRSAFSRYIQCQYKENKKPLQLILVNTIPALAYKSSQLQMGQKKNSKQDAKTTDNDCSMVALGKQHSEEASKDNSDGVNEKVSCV
T4 sequence (Q12809 whole entry): as the sequence (Q12809 whole entry) above

Row | Structure (SMILES) | Ki (D(2) dopamine receptor [1]) [nM] | Ki (D(2) dopamine receptor [2]) [nM] | Ki (D(4) dopamine receptor) [nM] | EC50 (D(2) dopamine receptor [3]) [nM] | EC50 (D(2) dopamine receptor [4]) [nM] | EC50 (D(2) dopamine receptor [5]) [nM] | Activity (HEK293) | Emax (D(2) dopamine receptor [14]) [%] | Ki (D(1A) dopamine receptor) [nM] | Ki (D(1B) dopamine receptor) [nM] | Ki [15] [nM] | other results
1 | O=C1CCc2ccc(OCCCCN3CCCN(c4ccc(O)c5[nH]c(=O)ccc45)CC3)cc2N1 | 1.6 | 0.81 | 75 | 190 | 67 | 200 | Non-Toxic | 55 | 11000 | > 20000 | 3400 | half-life at 20 µM [6]: 130 min; microsomal CLint at 20 µM [7]: 11 µL/min/mg; fraction unbound at 1 h [8]: 0.73; PB [9]: Not Active; inhibition (INH) [10]: Not Active; activity at 10 µM (hERG (KCNH2) [11]): 71.7%; activity at 50 µM (hERG (KCNH2) [12]): 21.5%; IC50 [13]: 19700 nM; inhibition (INH) ([13]; human): Dose-dependent effect
2 | O=c1ccc2c(N3CCCN(CCCCOc4ccn5nccc5c4)CC3)ccc(O)c2[nH]1 | 78 | 46 | 190 | 370 | 90 | 250 | Non-Toxic | 56 | 13000 | > 20000 | 9000 | Stability (Liver): Unstable; half-life at 20 µM [6]: 51 min; microsomal CLint at 20 µM [7]: 27 µL/min/mg; PB [9]: Not Active
3 | O=C1CCc2ccc(OCCCCN3CCN(c4ccc(O)c5oc(=O)ccc45)CC3)cc2N1 | 4.8 | 2 | 870 |  |  |  | Non-Toxic |  | > 20000 | > 20000 | > 20000 | 
4 | CCCCn1cc(CCCOc2ccc(C(=O)NCCCCN3CCCN(c4ccc(O)c5[nH]c(=O)ccc45)CC3)cc2OC)nn1 | 200 | 220 | 2100 | 1600 |  |  | Non-Toxic |  | 4000 | > 20000 | 1500 | 
5 | O=C1CCc2ccc(OCCCCN3CCN(c4ccc(O)c5[nH]c(=O)ccc45)CC3)cc2N1 | 0.89 | 1 | 66 | 93 |  |  | Non-Toxic |  | 5400 | 9300 | 2200 | 
6 | O=C1CCc2ccc(OCCCCN3CCN(c4ccc(O)c5c4OCCO5)CC3)cc2N1 | 2.9 | 2.2 | 300 |  |  |  | Non-Toxic |  | 4500 | 16000 | 160 | 
7 | Oc1ccc(N2CCN(CCCCOc3ccn4nccc4c3)CC2)c2c1OCCO2 | 110 | 68 | 160 |  |  |  | Non-Toxic |  | 5300 | 19000 | 480 | 
8 | O=c1ccc2c(N3CCN(CCCCOc4ccn5nccc5c4)CC3)ccc(O)c2o1 | 40 | 19 | 270 |  |  |  | Non-Toxic |  | > 20000 | > 20000 | 2800 | 
9 | CCCN(CCC)CCc1cccc2c1CC(=O)N2 [ROPINIROLE] |  |  |  | 89 | 330 | 30 |  | 92 |  |  |  | 
10 | O=C1COc2c(N3CCN(CCCCOc4ccn5nccc5c4)CC3)ccc(O)c2N1 | 2 | 0.86 | 4.8 | 62 |  |  | Non-Toxic |  | 2300 | 16000 | 1300 | 
11 | O=C1CCc2ccc(OCCCCN3CCCN(c4ccc(O)c5c4OCC(=O)N5)CC3)cc2N1 | 1.6 | 1.6 | 60 | 470 | 78 | 630 | Non-Toxic | 26 | 2700 | 15000 | 2000 | 
12 | O=C1CCc2ccc(OCCCCN3CCN(c4ccc(O)c5ncccc45)CC3)cc2N1 | 3.4 | 1.5 | 94 |  |  |  | Non-Toxic |  | 1500 | 3400 | 39 | 
13 | O=C1CCc2ccc(OCCCCN3CCCN(c4ccc(O)c5oc(=O)ccc45)CC3)cc2N1 | 100 | 37 | 5000 | 220 | > 5000 | 130 | Non-Toxic |  | > 20000 | > 20000 | 2300 | Emax (D(2) dopamine receptor [16]): 36%
14 | CCCN[C@H]1CCc2nc(N)sc2C1 |  |  |  |  |  |  |  | 102 |  |  |  | 
15 | O=C1CCc2ccc(OCCCCN3CCN(c4ccc(O)c5c4OCC(=O)N5)CC3)cc2N1 | 0.87 | 0.67 | 8.3 | 92 |  |  | Non-Toxic |  | 12000 | 4200 | 430 | 
16 | Oc1ccc(N2CCN(CCCCOc3ccn4nccc4c3)CC2)c2cccnc12 | 33 | 25 | 55 |  |  |  | Non-Toxic |  | 1100 | 5800 | 200 | 
17 | O=c1ccc2c(N3CCN(CCCCOc4ccn5nccc5c4)CC3)ccc(O)c2[nH]1 |  |  | 31 |  |  |  | Non-Toxic |  | 4700 | 13000 | 3600 | 
18 | CCCN(CCc1cccs1)[C@H]1CCc2c(O)cccc2C1 [ROTIGOTINE] |  |  |  | 4.1 | 3.2 | 4.4 |  | 91 |  |  |  | Stability (Liver): Unstable; half-life at 20 µM [6]: 5.8 min; microsomal CLint at 20 µM [7]: 240 µL/min/mg
19 | CCCCn1cc(CCCOc2ccc(C(=O)NCCCN3CCCN(c4ccc(O)c5[nH]c(=O)ccc45)CC3)cc2OC)nn1 | 350 | 440 | 3200 | 680 |  |  | Non-Toxic |  | 17000 | > 20000 | 4200 | 
